Active and inactive are the calls of the source. The rule behind the calls is not given here.
Assays:
MEB5 [1] = experiment: Induction of neuronal differention in mouse MEB5 neurospheres at 10 uM after 4 days by DAPI dye-based fluorescence confocal laser scaning microscopic analysis; assay type: functional
MEB5 [2] = experiment: Increase in neuronal differention in mouse MEB5 neurospheres at 10 uM after 4 days by DAPI dye-based fluorescence confocal laser scaning microscopic analysis; assay type: functional
[3] = molecular target: T1, Transcription factor HES-1 (Rattus norvegicus) (UniProt Q04666); experiment: Binding affinity to rat GST-tagged truncated HES1 (47 to 281 residues) expressed in Escherichia coli JM109 after 2 hrs by HPLC based bead assay
T1 sequence (whole entry): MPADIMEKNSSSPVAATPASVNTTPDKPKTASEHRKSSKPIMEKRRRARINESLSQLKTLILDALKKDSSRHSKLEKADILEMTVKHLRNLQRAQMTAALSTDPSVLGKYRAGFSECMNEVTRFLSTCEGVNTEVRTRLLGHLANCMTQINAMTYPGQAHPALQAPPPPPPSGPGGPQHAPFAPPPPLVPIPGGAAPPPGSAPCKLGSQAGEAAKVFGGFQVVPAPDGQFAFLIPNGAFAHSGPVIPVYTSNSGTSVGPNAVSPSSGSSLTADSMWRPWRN

[4] = molecular target: T1, Transcription factor HES-1 (Rattus norvegicus); experiment: Binding affinity to rat GST-tagged truncated HES1 (1 to 95 residues) expressed in Escherichia coli JM109 after 2 hrs by HPLC based bead assay
[5] = molecular target: T1, Transcription factor HES-1 (Rattus norvegicus); experiment: Binding affinity to rat GST-tagged truncated HES1 (151 to 281 residues) expressed in Escherichia coli JM109 after 2 hrs by HPLC based bead assay
[6] = molecular target: T1, Transcription factor HES-1 (Rattus norvegicus); experiment: Binding affinity to rat GST-tagged truncated HES1 (47 to 156 residues) expressed in Escherichia coli JM109 after 2 hrs by HPLC based bead assay
MEB5 [7] = experiment: Induction of neuronal differention in mouse MEB5 neurospheres at 100 uM after 4 days by DAPI dye-based fluorescence confocal laser scaning microscopic analysis; assay type: functional, cell-based

Activity [3] | Activity [4] | Activity [5] | Activity [6] | Structure (SMILES) | Activity (MEB5 [1]) [%] | Activity (MEB5 [2]) [%] | Activity (MEB5 [7])
Active | Active | Active | Active | CC1=C\C=C\C=C\CC(C)NC(=O)/C=C/C=C/C=C/C(C)C(O)C(O)C(O)CC(O)/C=C\C=C\1 (centres undefined) | 30 | 17 | –
– | – | – | – | C/C=C/C=C/C=C/[C@@H]1NCC[C@@H](O)[C@H]1C | 35 | 34 | –
– | – | – | – | CCCC(CCC)C(=O)O | – | – | Active

Source: ChEMBL document CHEMBL4052608, “Hes1-Binding Compounds Isolated by Target Protein Oriented Natural Products Isolation (TPO-NAPI)” (2017)
